Key:
apyrase = experiment: In vitro apyrase assay (screen for apyrase inhibitors); format: biochemical; details: inhibitor conc at 1 mM, 1 hr at room temperature, absorbance @630 nm
Experimental: Method 1: In Vitro Apyrase Assay:
The apyrase inhibitory activity was assessed using an in vitro assay. The method of Windsor, Bio Techniques 33:1024-1030 (November 2002) was used as follows:
96 well plates were used for the assay: (Greiner bio-one: REF-655901- 96 well, PS, F-bottom, Clear, Non-binding)
Reaction Buffer: 60 mM Hepes; 3 mM MgCl2, 3 mM CaCl2 and 3 mM ATP (pH 6.5)
Development Buffer A: 2% aqueous ammonium molybdate
Development Buffer B: 11% ascorbic acid in 37.5% TCA in water
Stop buffer C: 2% trisodium citrate in 2% acetic acid solution in water • Add 100 μl of reaction buffer to each well. • Add 10 μl of DMSO (control) or inhibitor/compound or compounds such as N1915 or orthovanadate to each well. (use inhibitor conc at 1 mM; orthovanadate at 2 mM and N1915 at 1 mM) • Add 10 μl of apyrase (concentration based on optimization—Dilute 1 U/μl enzyme to different concentrations such as 0.1 U, 0.05 U, 0.0025, 0.001 U, 0.0005 U—to find a good range) • Incubate plate at room temperature for 1 hr • Mix development buffer A and B in the ratio of 1:1.5 (just before use). • Add 50 ul of A:B mix in each well (incubate for 2 mins) • Add 50 ul of C in each well • Measure/Read Absorbance of plate @630 nm Compound 1 inhibited inhibited apyrase in this assay at about 60%. : […]

plant pathogenic fungi = experiment: Crop trials of fungicides with and without the enhancer compound (FIGS. 1-8); format: in vivo; details: soy, wheat and grape crops
Excerpt: FIG. 1 illustrates Asian soybean rust severity in untreated crop (UTC) versus soy treated with azoxystrobin, chlorothalonil, tebuconazole or azoxystrobin and tebuconazole with and without the present enhancer compound (TX 15) at 1, 7, 9, 14 and 16 days after application (DAA).
FIG. 2 illustrates frogeye leaf spot intensity of infection in soy in untreated crop (UTC) versus soy treated with azoxystrobin, chlorothalonil, tebuconazole or azoxystrobin and tebuconazole with and without the present enhancer compound (TX15) at 4, 11 and 18 (two trials) days after application (DAA).
FIG. 3 illustrates yellow rust foliar infection percentage of wheat in untreated crop (UTC) versus wheat with preventive application of AMISTAR® (azoxystrobin), folpet, PROLINE® (prothioconazole), REVYSTAR® (fluxapyroxad and mefentrifluconazole), A20944 (prothioconazole and pydiflumetofen), ELATUS® ERA (prothioconazole and benzovindiflupyr), A21857 (ADEPIDYN®; pydiflumetofen), INATREQ® (fenpicoxamid) with and without the present enhancer compound (TX 15). […]
FIG. 7 illustrates the severity of downy mildew attack on grape crops assessed as to bunches and leaves in untreated crop (UTC) versus crop treated with cyazofamid or cyazofamid and the present enhancer compound (TX 15). […]

[1] = tested on: Zymoseptoria tritici (Septoria tritici); experiment: Greenhouse crop test of Compound 1 with metconazole on winter wheat; format: in vivo; details: winter wheat infected with Z. tritici, preventative spray 1 d before inoculation, FIG. 9
Experimental: A 2019 field isolate of Zymoseptoria tritici (Septoria tritici) was grown on potato dextrose agar (PDA), amended with penicillin and streptomycin, to eliminate possible bacterial contamination, for 6 d at 20° C.
Spore suspensions were made by flooding the plates with sterile distilled water and scraping gently. The spore suspensions were adjusted to 10^6 conidia mL^−1, by haemocytometer counts and appropriate dilution, before final re-suspension in potato dextrose broth, amended with 1.5 g L^−1 gelatin and 0.5 g L^−1 sodium oleate.
Septoria-susceptible winter wheat cv Trinity was planted in Levington M3 compost. Seeds (12-15 per pot) were planted per 9 cm pot and grown to growth stage 12. Plants were accommodated in a glasshouse with day heating to 20° C., venting at 22° C., and night heating to maintain 15° C. Plants were inoculated with Z. tritici by spraying spore suspensions at 10^6 spores ml^−1 to just before run-off. Three replicate pots were used per treatment. The plants were placed in sealed, transparent propagators for 72 hours, to maintain high relative humidity and to ensure free water remained on leaves. […] Preventative fungicide sprays were made 1 d before inoculation. Treatments were randomised within the glasshouse. All fungicides were applied at the equivalent rate of 200 L water per hectare, using a calibrated pressurised hand-held sprayer. […]

| SMILES | inhibited apyrase (apyrase) | fungal growth in combination with exemplary fungicides (plant pathogenic fungi) | effect of combining Compound 1 (TX15) with the fungicide [1] |
| --- | --- | --- | --- |
| C/C(=N\NC(=O)c1cccc(C)c1)c1ccc2ccccc2c1 [Compound 1, (E)-3-methyl-N′-(1-(naphthalen-2-yl)ethylidene)benzohydrazide] | about 60% | dramatically reduces fungal growth | – |
| CC1(C)CCC(Cc2ccc(Cl)cc2)C1(O)Cn1cncn1 (stereo not drawn) [metconazole] | – | – | synergistic effect |

From US20240164380A1, “ANTIFUNGAL COMPOSITIONS AND METHODS FOR THEIR USE” (Texas Crop Science, Inc., priority 2022, published 2024)
